Assay results: publication PMC9693259, “Synthesis, Self-Assembly in Crystalline Phase and Anti-Tumor Activity of 2-(2-/4-Hydroxybenzylidene)thiazolo[3,2-a]pyrimidines” (Molecules, 2022)
Like-named read-outs stand apart in the source and are kept apart here.

Assays:
[1] = parameters: method as in doi:10.5935/0103-5053.20160038; conditions: due to optimal hydrophilicity/lipophilicity; cited from earlier work
[2] = system: MCF-7 breast cancer cell line; parameters: method as in PMID 25096298; conditions: cited from earlier work
[3] = system: anti-apoptotic Bcl protein; parameters: method as in PMID 20405848; conditions: cited from earlier work
[4] = system: M-HeLa clone 11 (epithelioid carcinoma of the cervix, subline HeLa, clone M-HeLa); assay: MTT cytotoxicity test, M-HeLa; assay type: cell-based; conditions: mean ± SD, triplicate
Experimental: (§1) Formazan crystals were added to 100 µL of DMSO. […] The experiments for all compounds were repeated three times.

[5] = system: HuTu 80 human duodenal adenocarcinoma; assay: MTT cytotoxicity test, HuTu 80; assay type: cell-based; conditions: triplicate
Experimental: as §1

[6] = system: Chk1, Chk2, H2AX, MDM2, p53, p21, ATR in M-HeLa cells; assay: Multiplex analysis of DNA damage/genotoxicity markers (MILLIPLEX MAP 7-plex, Luminex); assay type: cell-based; conditions: IC50/2 and IC50, 24 h
Description: Classical methods of assessing genotoxicity reveal mutations associated with increased or loss of function, but are not informative enough in studying the molecular mechanisms of DNA damage. The MILLIPLEX® MAP 7-plex DNA Damage/Genotoxicity Magnetic Bead kit allows to detect the expression and phosphorylation of a number of proteins involved in DNA damage, providing a faster and more accurate assessment of the state of the cell after exposure to genotoxic compounds. The 7-plex DNA Damage/Genotoxicity Magnetic Bead Kit is used to detect changes in phosphorylated Chk1 (Ser345), Chk2 (Thr68), H2AX (Ser139) and p53 (Ser15), as well as total protein levels of ATR, MDM2, and p21 in cellular lysates using the Luminex® system. […] The obtained results characterize the effect of the leading compound 7 on the DNA of M-HeLa cells at concentrations of IC50/2 and IC50. […] The fluorescence intensity of OTR markers also increases relative to the reference sample. […]
The studies were carried out according to the standard protocol. […] A total of 20 μg of total protein of each lysate diluted in MILLIPLEX® MAP Assay Buffer 2 was analyzed according to the analysis protocol (the lysate was incubated at 4 °C overnight). The mean fluorescence intensity (MFI) was detected using Luminex® system, MERCK, Kenilworth, NJ, USA.

[7] = system: MCF-7 (human mammary duct adenocarcinoma cell line); assay: MTT cytotoxicity test, MCF-7; assay type: cell-based; conditions: triplicate
Experimental: as §1

[8] = MTT cytotoxicity test, normal Chang liver cells; conditions: human
Description: (§2) For the experiments, tumor cell cultures of M-HeLa clone 11 (epithelioid carcinoma of the cervix, subline HeLa., clone M-HeLa), HuTu 80, human duodenal adenocarcinoma, MCF7—human breast adenocarcinoma (pleural fluid) collected from Institute of Cytology, Russian Academy of Sciences (St. Petersburg, Russia); PC3—prostate adenocarcinoma cell line collected from ATCC (American Type Cell Collection, Manassas, VA, USA; CRL 1435; human liver cells (Chang liver) and the Research Institute of Virology of the Russian Academy of Medical Sciences (Moscow, Russia) were used for cytotoxicity analysis.
(§3) The cytotoxic effect on cells was determined using the colorimetric method of cell proliferation—the MTT test. NADP-H-dependent cellular oxidoreductase enzymes can, under certain conditions, reflect the number of viable cells. These enzymes are able to reduce the tetrazolium dye (MTT)—3-(4,5-dimethylthiazol-2-yl)-2,5-diphenyl-tetrazolium bromide to insoluble blue-violet formazan, which crystallizes inside the cell. The amount of formazan formed is proportional to the number of cells with active metabolism. Cells were seeded on a 96-well Nunc plate at a concentration of 5 × 10^3 cells per well in a volume of 100 μL of medium and cultured in a CO2 incubator at 37 °C until a monolayer was formed. […] After 48 h of incubation of the cells with the tested compounds, the nutrient medium was removed from the plates and 100 µL of the nutrient medium without serum with MTT at a concentration of 0.5 mg/mL was added and incubated for 4 h at 37 °C. Formazan crystals were added to 100 µL of DMSO. Optical density was recorded at 540 nm on an Invitrologic microplate reader (Novosibirsk, Russia). The experiments for all compounds were repeated three times.
(§4) Statistical analysis was performed using the Mann–Whitney test (p < 0.05). Tabular and graphical data contain the averages and standard error.

[9] = system: Chang liver (HeLa derivative) human liver cells; assay: MTT cytotoxicity test, normal Chang liver cells; conditions: 48 h, read-out: IC50 Chang Liver (HeLa), normal cell line
Description: as §2, §3, §4

[10] = system: PC3 prostate adenocarcinoma cell line; assay: MTT cytotoxicity test, PC3; assay type: cell-based; conditions: mean ± SD, triplicate
Experimental: as §1

[11] = Homo sapiens, M-HeLa, 48 h, read-out: IC50 M-HeLa
[12] = Homo sapiens, M-HeLa, lead compounds, read-out: IC50 M-HeLa (Table 2)
[13] = Homo sapiens, HuTu80, 48 h, mean ± SD, read-out: IC50 HuTu 80
[14] = Homo sapiens, HuTu80, mean ± SD, lead compounds, read-out: IC50 HuTu 80 (Table 2)
[15] = Homo sapiens, MCF7, 48 h, mean ± SD, read-out: IC50 MCF-7
[16] = Homo sapiens, MCF7, mean ± SD, lead compounds, read-out: IC50 MCF-7 (Table 2)
[17] = lead compounds, read-out: IC50 PC3 (Table 2)

Compound	IC50 [4, 11]	IC50 [4, 12]	IC50 [5, 13]	IC50 [5, 14]	IC50 [7, 15]	IC50 [7, 16]	IC50 at 48 h [8]	IC50 ([9]; Homo sapiens, HeLa)	IC50 ([10]; 48 h, read-out: IC50 PC3)	IC50 [10, 17]	melting point	further results
COc1ccc2c(c1)CCC1=C2N=c2s/c(=C\c3c[nH]c4ccc(Br)cc34)c(=O)n2C1c1ccc(Cl)cc1 (stereo not drawn) [Compound 1]												absorption ability in the gastrointestinal tract [1]: high absorption ability; cytotoxicity efficiency relative to doxorubicin [2]: 1.15 times
COc1ccc(C2C3=C(N=c4s/c(=C\c5c[nH]c6ccc(Br)cc56)c(=O)n42)c2ccc(OC)cc2CC3)cc1 (stereo not drawn) [Compound 3]												IC50 [3]: 3.4 µM
CCOC(=O)C1=C(C)N=c2s/c(=C\c3ccccc3O)c(=O)n2C1c1ccccc1 (stereo not drawn) [Compound 7, ethyl (Z)-2-(2-hydroxybenzylidene)-7-methyl-3-oxo-5-phenyl-2,3-dihydro-5H-thiazolo[3,2-a]pyrimidine-6-carboxylate]	11.9 ± 0.9 µM	11.9 ± 0.9 µM	10.2 ± 0.8 µM	10 ± 0.8 µM	43.7 ± 3.5 µM	43.7 ± 3.5 µM	75 ± 5.7 µM	75 ± 5.7 µM	77.6 ± 6.7 µM	77.6 ± 6.7 µM		average fluorescence intensity of the markers Chk1, Chk2, H2AX, MDM2, p53, and p21 ([6]; compared to untreated control): significantly increase; fluorescence intensity of OTR markers ([6]; relative to the reference sample): increases
CCOC(=O)C1=C(C)N=c2s/c(=C\c3ccccc3O)c(=O)n2C1c1cccc([N+](=O)[O-])c1 (stereo not drawn) [Compound 10, Ethyl (Z)-2-(2-hydroxybenzylidene)-7-methyl-5-(3-nitrophenyl)-3-oxo-2,3-dihydro-5H-thiazolo[3,2-a]pyrimidine-6-carboxylate]	55 ± 4.4 µM	55 ± 4.4 µM	60 ± 4.7 µM	14.6 ± 0.3 µM	56 ± 4.5 µM	56 ± 4.5 µM	88 ± 7 µM	88 ± 7 µM	56 ± 4.4 µM	56 ± 4.4 µM	187 to 189 °C	
COc1ccccc1C1C(C(=O)c2ccccc2)=C(C)N=c2s/c(=C\c3ccccc3O)c(=O)n21 (stereo not drawn) [Compound 11, (Z)-6-benzoyl-2-(2-hydroxybenzylidene)-5-(2-methoxyphenyl)-7-methyl-5H-thiazolo[3,2-a]pyrimidin-3(2H)-one]	56.4 ± 4.5 µM		39 ± 3.1 µM		81 ± 7.4 µM			64 ± 5.1 µM	54 ± 4.3 µM		167 to 169 °C	
CCOC(=O)C1=C(C)N=c2s/c(=C\c3ccccc3O)c(=O)n2C1c1ccc(Br)cc1 (stereo not drawn) [Compound 12, Ethyl (Z)-5-(4-bromophenyl)-2-(2-hydroxybenzylidene)-7-methyl-3-oxo-2,3-dihydro-5H-thiazolo[3,2-a]pyrimidine-6-carboxylate]	18.8 ± 1.5 µM	18.8 ± 1.5 µM	23.7 ± 1.8 µM	23.7 ± 1.8 µM	22.3 ± 1.4 µM	52.7 ± 4.2 µM	78.2 ± 6.2 µM	78.2 ± 6.2 µM	28.1 ± 2.2 µM	28.1 ± 2.2 µM	201 to 203 °C	
CCOC(=O)C1=C(C)N=c2s/c(=C\c3ccc(O)cc3)c(=O)n2C1c1ccccc1 (stereo not drawn) [Compound 13, ethyl (Z)-2-(4-hydroxybenzylidene)-7-methyl-3-oxo-5-phenyl-2,3-dihydro-5H-thiazolo[3,2-a]pyrimidine-6-carboxylate]	70 ± 5.5 µM		43.3 ± 3.5 µM		> 100 µM			86.1 ± 6.8 µM	54 ± 4.3 µM			
CCOC(=O)C1=C(C)N=c2s/c(=C\c3ccc(O)cc3)c(=O)n2C1c1ccc(Br)cc1 (stereo not drawn) [Compound 14, Ethyl (Z)-5-(4-bromophenyl)-2-(4-hydroxybenzylidene)-7-methyl-3-oxo-2,3-dihydro-5H-thiazolo[3,2-a]pyrimidine-6-carboxylate]	31 ± 2.4 µM		32.1 ± 2.5 µM		53.3 ± 4.2 µM			53.2 ± 4.2 µM	49.3 ± 3.9 µM		207 to 209 °C	
CCOC(=O)C1=C(C)N=c2s/c(=C\c3ccc(O)cc3)c(=O)n2C1c1cccc([N+](=O)[O-])c1 (stereo not drawn) [Compound 15, Ethyl (Z)-2-(4-hydroxybenzylidene)-7-methyl-5-(3-nitrophenyl)-3-oxo-2,3-dihydro-5H-thiazolo[3,2-a]pyrimidine-6-carboxylate]	> 100 µM		74.5 ± 5.7 µM		> 100 µM			91.4 ± 7.2 µM	70 ± 5.5 µM		190 to 192 °C	
CNC(=O)c1cc(Oc2ccc(NC(=O)Nc3ccc(Cl)c(C(F)(F)F)c3)cc2)ccn1 [Sorafenib, reference compound]	25 ± 1.8 µM	25 ± 1.8 µM	13 ± 1.2 µM	13 ± 1.2 µM	27.5 ± 2.2 µM	27.5 ± 2.2 µM	21.7 ± 1.7 µM	21.7 ± 1.7 µM	12.7 ± 1.1 µM	27.5 ± 2.2 µM		
ethyl (Z)-2-(2-hydroxybenzylidene)-5-(4-methoxyphenyl)-7-methyl-3-oxo-2,3-dihydro-5H-thiazolo[3,2-a]pyrimidine-6-carboxylate [Compound 8]									93.7 ± 8.5 µM			IC50 ([4]; 48 h, read-out: IC50 M-HeLa): 90 ± 8.3 µM; IC50 ([5]; 48 h, mean ± SD, read-out: IC50 HuTu 80): 85.9 ± 8 µM; IC50 ([7]; 48 h, mean ± SD, read-out: IC50 MCF-7): 93.3 ± 8.2 µM; IC50 ([9]; MTT, mean ± SD, triplicate): 56.4 ± 4.5 µM
